{
  "source": "PubChem BioAssay (NCI)",
  "assay_in_all_cases": "DTP human tumour cell line panel, 384-well format",
  "key": {"[1]": {"system": "KM12 colon"}, "[2]": {"system": "TK-10 renal"}, "[3]": {"system": "LOX IMVI melanoma"}, "[4]": {"system": "COLO 205 colon"}, "[5]": {"system": "PC-3 prostate"}, "[6]": {"system": "NCI-H460 NSCLC"}, "[7]": {"system": "A498 renal"}, "[8]": {"system": "BT-549 breast"}, "[9]": {"system": "NCI-H23 lung"}, "[10]": {"system": "SNB-19 CNS"}, "[11]": {"system": "CAKI-1 renal"}, "[12]": {"system": "HL-60(TB) leukemia"}, "[13]": {"system": "U251 glioblastoma"}},
  "note": "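The concentration for 50% growth inhibition is given as GI50. TGI: concentration producing complete growth inhibition.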 Residues, ends and D or L forms follow the SMILES beside them. *: point of attachment. Cbz = O=C(OCc1ccccc1)*",
  "data": [
    {"smiles": "Cc1[nH]nc2ncc(C(=O)N3CCC[C@H]3c3ccc(Cl)cc3)cc12", "values": [
      {"measurement": "GI50", "setting": "[1]", "value": 31.5, "unit": "µM"},
      {"measurement": "TGI", "setting": "[1]", "value": "> 85.1", "unit": "µM"},
      {"measurement": "GI50", "setting": "[2]", "value": 80.6, "unit": "µM"},
      {"measurement": "TGI", "setting": "[2]", "value": "> 100", "unit": "µM"},
      {"measurement": "GI50", "setting": "[3]", "value": 60.6, "unit": "µM"},
      {"measurement": "TGI", "setting": "[3]", "value": "> 100", "unit": "µM"},
      {"measurement": "GI50", "setting": "[4]", "value": 33.6, "unit": "µM"},
      {"measurement": "TGI", "setting": "[4]", "value": 83.4, "unit": "µM"},
      {"measurement": "GI50", "setting": "[5]", "value": 48.9, "unit": "µM"},
      {"measurement": "TGI", "setting": "[5]", "value": "> 100", "unit": "µM"},
      {"measurement": "GI50", "setting": "[6]", "value": 60.4, "unit": "µM"},
      {"measurement": "TGI", "setting": "[6]", "value": "> 100", "unit": "µM"},
      {"measurement": "GI50", "setting": "[7]", "value": 39, "unit": "µM"},
      {"measurement": "TGI", "setting": "[7]", "value": "> 100", "unit": "µM"},
      {"measurement": "GI50", "setting": "[8]", "value": 57.7, "unit": "µM"},
      {"measurement": "TGI", "setting": "[8]", "value": "> 100", "unit": "µM"},
      {"measurement": "GI50", "setting": "[9]", "value": 36.6, "unit": "µM"},
      {"measurement": "TGI", "setting": "[9]", "value": "> 100", "unit": "µM"},
      {"measurement": "GI50", "setting": "[10]", "value": "> 100", "unit": "µM"},
      {"measurement": "TGI", "setting": "[10]", "value": "> 100", "unit": "µM"},
      {"measurement": "GI50", "setting": "[11]", "value": "> 100", "unit": "µM"},
      {"measurement": "TGI", "setting": "[11]", "value": "> 100", "unit": "µM"},
      {"measurement": "GI50", "setting": "[12]", "value": 19.7, "unit": "µM"},
      {"measurement": "TGI", "setting": "[12]", "value": 34.3, "unit": "µM"},
      {"measurement": "GI50", "setting": "[13]", "value": 51.7, "unit": "µM"},
      {"measurement": "TGI", "setting": "[13]", "value": "> 100", "unit": "µM"}
    ]},
    {"smiles": "CC(C)C[C@@H](C=O)NC(=O)[C@H](CC(C)C)NC(=O)[C@H](CC(C)C)NC(=O)OCc1ccccc1", "note": "(Cbz-Leu-Leu-Leu-aldehyde)", "values": [
      {"measurement": "GI50", "setting": "[1]", "value": 0.178, "unit": "µM"},
      {"measurement": "TGI", "setting": "[1]", "value": 0.326, "unit": "µM"},
      {"measurement": "GI50", "setting": "[2]", "value": 0.195, "unit": "µM"},
      {"measurement": "TGI", "setting": "[2]", "value": 0.417, "unit": "µM"},
      {"measurement": "GI50", "setting": "[3]", "value": 0.158, "unit": "µM"},
      {"measurement": "TGI", "setting": "[3]", "value": 0.298, "unit": "µM"},
      {"measurement": "GI50", "setting": "[4]", "value": 0.258, "unit": "µM"},
      {"measurement": "TGI", "setting": "[4]", "value": 0.714, "unit": "µM"},
      {"measurement": "GI50", "setting": "[5]", "value": 0.177, "unit": "µM"},
      {"measurement": "TGI", "setting": "[5]", "value": 0.325, "unit": "µM"},
      {"measurement": "GI50", "setting": "[6]", "value": 0.2, "unit": "µM"},
      {"measurement": "TGI", "setting": "[6]", "value": 0.38, "unit": "µM"},
      {"measurement": "GI50", "setting": "[7]", "value": 0.263, "unit": "µM"},
      {"measurement": "TGI", "setting": "[7]", "value": 0.796, "unit": "µM"},
      {"measurement": "GI50", "setting": "[8]", "value": 0.164, "unit": "µM"},
      {"measurement": "TGI", "setting": "[8]", "value": 0.305, "unit": "µM"},
      {"measurement": "GI50", "setting": "[9]", "value": 0.163, "unit": "µM"},
      {"measurement": "TGI", "setting": "[9]", "value": 0.31, "unit": "µM"},
      {"measurement": "GI50", "setting": "[10]", "value": 0.161, "unit": "µM"},
      {"measurement": "TGI", "setting": "[10]", "value": 0.34, "unit": "µM"},
      {"measurement": "GI50", "setting": "[11]", "value": 0.228, "unit": "µM"},
      {"measurement": "TGI", "setting": "[11]", "value": 0.676, "unit": "µM"},
      {"measurement": "GI50", "setting": "[12]", "value": 0.171, "unit": "µM"},
      {"measurement": "TGI", "setting": "[12]", "value": 0.311, "unit": "µM"},
      {"measurement": "GI50", "setting": "[13]", "value": 0.211, "unit": "µM"},
      {"measurement": "TGI", "setting": "[13]", "value": 0.407, "unit": "µM"}
    ]}
  ]
}
